# Laboratory results published in patent US20180116213A1 (priority 2015, published 2018).
# What was measured:
# [1] = test system: leaf discs of the common lawn weed Plantiago major; assay: Leaf disc bioassay, Plantiago major leaf discs; design: key to necrosis and chlorosis 18 HAT / necrosis and chlorosis 36 HAT: 0: no damage; +: minor damages; ++: severe damages on up to 50% of leave surface; +++: damages on more than 50% of leave surface; ++++: 100% damage
# Excerpt: (§1) The plants and leaves were visually assessed for damages by necrosis and chlorosis with the following scale for evaluation: • 0: no damage • +: minor damages • ++: severe damages on up to 50% of leave surface • +++: damages on more than 50% of leave surface • ++++: 100% damage
# 5 mm discs were cut from leaves of plants from Plantiago major, Sesamum indicum, Aegopodium potagraria and Chelidonium majus using a paper punch (5 mm). 3 leaf discs of 5 mm Ø were placed in each well of 12-well microtiter plates. Each well containing 2 ml deionized H2O, or solutions of various concentrations of glyphosate, 2,4-D or synergistic mixtures (M). The plates were incubated under continuous light at 20° C. for the listed times. The leaf discs were visually assessed for chlorosis and necrosis at various times after treatment according to the scale for classification. The visual rating utilized a rating scale from 0 to ++++, where 0=no damage by necrosis/chlorosis, and ++++=total damage by chlorosis/necrosis (see Literature).
# 3 leaf discs of 5 mm Ø were placed in each well of 12-well microtiter plates. Each well containing 2 ml deionized H2O, or solutions of various concentrations of 2,4-D or synergistic mixture M4 with a 1:1 mixture of citric acid and SDS. The plates were incubated under continuous light at 20° C. for the listed times. The leaf discs were visually assessed for chlorosis and necrosis according to the scale for classification and listed for hours after treatment (HAT). The visual rating utilized a rating scale from 0 to ++++, where 0=no damage by necrosis/chlorosis, and ++++=total damage by chlorosis/necrosis.
# plant leaves = assay: Different tests (leaf disc bioassays, growth chamber trials, field trials), summary; settings: herbicide alone at a concentration of 0.1% to 0.25%
# Description: The activity of the synergistic mixtures to enhance the efficacy of herbicides was tested in vitro by leaf disc bioassays, in growth chamber trials with seedlings and in field trials with various different weed species.
# as §1
# [2] = application rate 0.1 % of volume
# [3] = application rate 0.25 % of volume
# [4] = application rate 0.5 % of volume
smiles,measurement,setting,value
"O=C(O)COc1ccc(Cl)cc1Cl [2,4-D, 2,4-dichlorophenoxyacetic acid]",necrosis and chlorosis 18 HAT,[1]; [2],0
same,necrosis and chlorosis 36 HAT,[1]; [2],0
same,necrosis and chlorosis 18 HAT,[1]; [3],0
same,necrosis and chlorosis 36 HAT,[1]; [3],0
same,necrosis and chlorosis 18 HAT,[1]; [4],0
same,necrosis and chlorosis 36 HAT,[1]; [4],0
same,damage of the leaf discs,"[1]; substance alone, conditions of Table 4",do not show efficient damage
same,damage of plant leaves,plant leaves,did not show any significant damage
